According to patent US20260108512A1, “COMPOUNDS, COMPOSITIONS AND METHODS OF TREATING DISORDERS” (HOTSPOT THERAPEUTICS, INC., priority 2022, published 2026):

Molecular target: T1, Cbl-b (Homo sapiens, UniProt Q13191)
T1 construct: biotin (biotinylated protein)
Assay: Cbl-b LCK Ub TR-FRET assay
Assay type: biochemical
Conditions: average IC50, graded A-C; read-out: CBL-B_TR-FRET_AVG_IC50
Procedure: Compounds are 3-fold serially diluted in DMSO in a 384-well polypropylene plate (e.g., #P-05525-BC; Labcyte) to generate a source plate with 10 concentrations of each compound, top concentration=2 mM. 80 nL of DMSO or compounds are transferred to each well of a black 384-well ProxiPlate (e.g., #6008260; PerkinElmer) using a Labcyte Echo, 1×assay buffer (50 mM HEPES pH7.0, 100 mM NaCl, 0.01% BSA, 0.01% Triton-X100, 1 mM DTT), 2×enzyme solution (16 nM Biotin-Cbl-b or 12 nM Biotin-c-Cbl in 1×assay buffer), 2×kinase mixture (120 nM His-LCK, 1 mM ATP, 10 mM MgCl2 in assay buffer) and 2.33×detection mixture (4.66×solution 1:163 nM Anti-HA-D2 antibody (e.g., #610HADAB:PerkinElmer), 27.96 nM Streptavidin-EU (e.g., #AD0062; PerkinElmer), 1.398 mM EDTA in 1×assay buffer+4.66×solution 2:2.796 pM UBE2D2/Methylated-HA-Ubiquitin thioester adduct (e.g., BostonBiochem) in 1×assay buffer) are prepared. 4 μL of 2×enzyme solution are added to each well containing compound, briefly centrifuged to mix, and incubated for 60 min at room temperature. 4 μL of 2×kinase mixture is added, briefly centrifuged to mix, and incubated for 90 min. at room temperature. 6 μL of detection mixture is added to all wells and briefly centrifuged before incubating for 20 min at room temperature. Plates am read for TR-FRET using an Envision at excitation 340 nm, emission at 615 and 665 nm, 4 flashes per well. IC50 is generated using no LCK as the low control and DMSO as the high control.

T1 sequence (Q13191 40-426): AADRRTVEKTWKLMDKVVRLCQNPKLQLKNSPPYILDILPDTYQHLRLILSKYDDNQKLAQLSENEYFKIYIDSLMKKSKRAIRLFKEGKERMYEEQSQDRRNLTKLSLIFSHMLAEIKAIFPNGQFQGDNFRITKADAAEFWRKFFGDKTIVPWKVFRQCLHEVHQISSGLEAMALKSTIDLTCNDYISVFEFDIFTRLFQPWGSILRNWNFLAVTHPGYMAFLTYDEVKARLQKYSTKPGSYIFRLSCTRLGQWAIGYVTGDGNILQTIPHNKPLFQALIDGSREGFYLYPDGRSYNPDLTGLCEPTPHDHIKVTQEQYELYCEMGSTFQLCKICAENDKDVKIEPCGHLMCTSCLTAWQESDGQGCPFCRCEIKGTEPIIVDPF

IC50	SMILES
101 to 500 nM	Cn1cnnc1[C@@H](F)[C@](C)(F)c1cccc(-n2cc3c(C(F)(F)F)cc(CN4CCC5(CC5)C4)cn3c2=O)c1 (single isomer, unassigned) [Compound 7]
< 100 nM	CC(C)[C@H]1CN(C)CCN1Cc1cc(C(F)(F)F)c2cn(-c3cccc(C4([C@@H](F)c5nncn5C)COC4)c3)c(=O)n2c1 (single isomer, unassigned) [Compound 20]
< 100 nM	Cn1cnnc1[C@@H](F)[C@](C)(F)c1cccc(-n2cc3c(C(F)(F)F)cc(CN4CCC5(CC5)C4)cn3c2=O)c1 (single isomer, unassigned) [Compound 6]
< 100 nM	CC(C)[C@H]1CN(C)CCN1Cc1cc(C(F)(F)F)c2cn(-c3cccc(C4([C@H](F)c5nncn5C)CC(F)(F)C4)c3)c(=O)n2c1 (single isomer, unassigned) [Compound 13]
< 100 nM	CC(C)[C@H]1CN(C)CCN1Cc1cc(C(F)(F)F)c2cn(-c3cccc(C4(Cc5nncn5C(F)F)COC4)c3)c(=O)n2c1 [Compound 1]
501 to 10000 nM	Cn1cnnc1[C@H](F)[C@@](C)(F)c1cccc(-n2cc3c(C(F)(F)F)cc(CN4CCC5(CC5)C4)cn3c2=O)c1 [Compound 9]
101 to 500 nM	Cn1cnnc1[C@@H](F)C1(c2cccc(-n3cc4c(C(F)(F)F)cc(CN5CCC5)cn4c3=O)c2)COC1 (single isomer, unassigned) [Compound 19]
< 100 nM	Cn1cnnc1[C@H](F)C1(c2cccc(-n3cc4c(C(F)(F)F)cc(CN5CCC5)cn4c3=O)c2)COC1 (single isomer, unassigned) [Compound 18]
501 to 10000 nM	Cn1cnnc1[C@H](F)C1(c2cccc(-n3cc4c(C(F)(F)F)cc(CNC5(C)CCC5)cn4c3=O)c2)COC1 (single isomer, unassigned) [Compound 2]
101 to 500 nM	Cn1cnnc1[C@@H](F)C1(c2cccc(-n3cc4c(C(F)(F)F)cc(CN)cn4c3=O)c2)COC1 (single isomer, unassigned) [Compound 5]
101 to 500 nM	Cn1cnnc1[C@H](F)C1(c2cccc(-n3cc4c(C(F)(F)F)cc(CN)cn4c3=O)c2)COC1 [Compound 4]
101 to 500 nM	Cn1cnnc1[C@@H](F)C1(c2cccc(-n3cc4c(C(F)(F)F)cc(CN5CC6CC5C6)cn4c3=O)c2)COC1 (single isomer, unassigned) [Compound 17]
< 100 nM	CC(C)[C@H]1CN(C)CCN1Cc1cc(C(F)(F)F)c2cn(-c3cccc(C4([C@@H](F)c5nncn5C)CC(F)(F)C4)c3)c(=O)n2c1 (single isomer, unassigned) [Compound 12]
101 to 500 nM	COC[C@H]1CCCN1Cc1cc(C(F)(F)F)c2cn(-c3cccc(C4([C@@H](F)c5nncn5C)COC4)c3)c(=O)n2c1 (single isomer, unassigned) [Compound 11]
< 100 nM	Cn1cnnc1[C@@H](F)C1(c2cccc(-n3cc4c(C(F)(F)F)cc(CN5CC(C)(CO)C5)cn4c3=O)c2)COC1 (single isomer, unassigned) [Compound 15]
101 to 500 nM	Cn1cnnc1[C@H](F)C1(c2cccc(-n3cc4c(C(F)(F)F)cc(CN5CC(C)(CO)C5)cn4c3=O)c2)COC1 (single isomer, unassigned) [Compound 14]
< 100 nM	CC(C)[C@H]1CN(C)CCN1Cc1cc(C(F)(F)F)c2cn(-c3cccc(C4([C@H](F)c5nncn5C)COC4)c3)c(=O)n2c1 (single isomer, unassigned) [Compound 21]
501 to 10000 nM	Cn1cnnc1[C@@H](F)C1(c2cccc(-n3cc4c(C(F)(F)F)cc(CNC5(C)CCC5)cn4c3=O)c2)COC1 (single isomer, unassigned) [Compound 3]
501 to 10000 nM	COC[C@H]1CCCN1Cc1cc(C(F)(F)F)c2cn(-c3cccc(C4([C@H](F)c5nncn5C)COC4)c3)c(=O)n2c1 (single isomer, unassigned) [Compound 10]
101 to 500 nM	Cn1cnnc1[C@@H](F)[C@@](C)(F)c1cccc(-n2cc3c(C(F)(F)F)cc(CN4CCC5(CC5)C4)cn3c2=O)c1 [Compound 8]
< 100 nM	Cn1cnnc1[C@H](F)C1(c2cccc(-n3cc4c(C(F)(F)F)cc(CN5CC6CC5C6)cn4c3=O)c2)COC1 (single isomer, unassigned) [Compound 16]
